Marks after values point to notes of the source that are not given here.
Experiments:
[1] = test system: human colon cancer cells SW-620; assay: Inhibitory effect on transplanted tumor of human colon cancer cells SW-620 in nude mice; details: for RTV mean ± SD) / TV (mean ± SD) d 28 / number of animals with tumor regression: SW-620, d 28; for number of animals with tumor regression: 6 mice per group; for Weight At the beginning / Weight At last: SW-620 tumor-bearing nude mice; for Weight At the beginning: baseline; for Weight At last: end of experiment
Text: (§1) BALB/cA nude mice (male, 5-6 weeks old, weighed 18±2 g) were provided by the Shanghai Institute of Materia Medica, Chinese Academy of Sciences. […] Animal numbers of each group: 12 mice in negative control group and 6 mice in treatment group.
Human […] tumor cell strains SW-620 were purchased from ATCC. 5×10^6 cells were subcutaneously inoculated in the right armpit of each nude mouse. The transplanted tumors were transferred in nude mice for two generations before utilization.
Vigorous tumor tissues were cut into pieces of about 1.5 mm3 and then subcutaneously inoculated to the right armpit nude mice under sterile conditions. The diameters of the subcutaneous transplanted tumors were measured using a vernier caliper. The animals were randomly grouped when the tumors grew to 100-200 mm3. […] After the administration, the animals were observed consecutively for one week. During the whole experiment, diameters of the transplanted tumors were measured and the animals were weighed two times a week. The tumor volume (TV) was calculated as follows: TV=½×a×b^2, wherein, a and b represented length and width respectively. According to the results of measurements, the relative tumor volumes (RTV) were calculated as follows: RTV=Vt/V0. Wherein, V0 were the volumes measured at administration after caging (i.e. d0), Vt were the tumor volumes of every measurements.

[2] = test system: human ovarian cancer cells SKOV-3; assay: Inhibitory effect on transplanted tumor of human ovarian cancer cells SKOV-3 in nude mice; details: for TV (mean ± SD) d 28 / number of animals with tumor regression: d 28; for number of animals with tumor regression: 6 mice per group; for Weight At the beginning / Weight At lats: SKOV-3 tumor-bearing nude mice; for Weight At the beginning: baseline; for Weight At lats: end of experiment
Text: as §1
Human […] tumor cell strains SKOV-3 were purchased from ATCC. 5×10^6 cells were subcutaneously inoculated in the right armpit of each nude mouse. The transplanted tumors were transferred in nude mice for two generations before utilization.
(§2) Vigorous tumor tissues were cut into pieces of about 1.5 mm3 and then subcutaneously inoculated to the right armpit nude mice under sterile conditions. The diameters of the subcutaneous transplanted tumors were measured using a vernier caliper. The animals were randomly grouped when the tumors grew to 100-200 mm3.
(§3) After the administration, the animals were observed consecutively for one week. During the whole experiment, diameters of the transplanted tumors were measured and the animals were weighed two times a week. The tumor volume (TV) was calculated as follows: TV=½×a×b^2, wherein, a and b represented length and width respectively. According to the results of measurements, the relative tumor volumes (RTV) were calculated as follows: RTV=Vt/V0. Wherein, V0 were the volumes measured at administration after caging (i.e. d0), Vt were the tumor volumes of every measurements.

[3] = test system: human colon cancer cells HT-29; assay: Inhibitory effect on transplanted tumors of human colon cancer cells HT-29 in nude mice; details: for Weight At the beginning / Weight At lats: HT-29 tumor-bearing nude mice; for Weight At the beginning: baseline; for Weight At lats: end of experiment
Text: as §1
Human colon tumor cell strains HT-29 were purchased from ATCC. 5×10^6 cells were subcutaneously inoculated in the right armpit of each nude mouse. The transplanted tumors were transferred in nude mice for two generations before utilization.
as §2, with “mm^3” for “mm3”, “mm^3.” for “mm3.”
as §3

[4] = test system: human colon cancer cells HCT-116; assay: Inhibitory effect on transplanted tumors of human colon cancer cells HCT-116 in nude mice; details: for Weight At the beginning / Weight At lats: HCT-116 tumor-bearing nude mice; for Weight At the beginning: baseline; for Weight At lats: end of experiment
Text: BALB/cA nude mice (male, 4-6 weeks old, weighed 19±2 g) were provided by the Shanghai Institute of Materia Medica, Chinese Academy of Sciences. […] Animal numbers of each group: 12 mice in negative control group and 6 mice in treatment group.
5×10^6 cells were subcutaneously inoculated in the right armpit of each nude mouse. The transplanted tumors were transferred in nude mice for two generations before utilization.
as §2, §3

[5] = test system: human lung cancer cells A549; assay: Inhibitory effect on transplanted tumors of human lung cancer cells A549 in nude mice; details: for Weight At the beginning: A549 tumor-bearing nude mice, baseline
Text: as §1
Human lung tumor cell strains A549 were purchased from ATCC. 5×10^6 cells were subcutaneously inoculated in the right armpit of each nude mouse. The transplanted tumors were transferred in nude mice for two generations before utilization.
as §2, §3

For `CCc1c2c(nc3ccc(OC(=O)N4CCC(N5CCCCC5)CC4)cc13)-c1cc3c(c(=O)n1C2)COC(=O)[C@]3(O)CC` [CPT-11, Irinotecan], the “RTV mean ± SD)” value ([1]; 15 mg/kg, iv q3w × 3w) was 0.02 ± 0.02**^,, the “TV (mean ± SD) d 28” value ([1]; 15 mg/kg, iv q3w × 3w) was 2.09 ± 1.51 mm^3 and the “number of animals with tumor regression” value ([1]; 15 mg/kg, iv q3w × 3w) was 0. For the same compound, the “Weight At the beginning” value ([1]; 15 mg/kg, iv q3w × 3w) was 19.7 g, the “Weight At last” value ([1]; 15 mg/kg, iv q3w × 3w) was 24.2 g and the “RTV mean ± SD)” value ([1]; 45 mg/kg, iv qw × 3w) was 6.60 ± 1.56. For the same compound, the “TV (mean ± SD) d 28” value ([1]; 45 mg/kg, iv qw × 3w) was 877 ± 324 mm^3, the “number of animals with tumor regression” value ([1]; 45 mg/kg, iv qw × 3w) was 0 and the “Weight At the beginning” value ([1]; 45 mg/kg, iv qw × 3w) was 18.8 g. The “Weight At last” value ([1]; 45 mg/kg, iv qw × 3w) was 21.8 g, the “TV (mean ± SD) d 28” value ([2]; 15 mg/kg, iv q3w × 3w, SKOV-3) was 924 ± 443 mm^3 and the “number of animals with tumor regression” value ([2]; 15 mg/kg, iv q3w × 3w, SKOV-3) was 0. The “Weight At the beginning” value ([2]; 15 mg/kg, iv q3w × 3w) was 18.9 g, the “Weight At lats” value ([2]; 15 mg/kg, iv q3w × 3w) was 18.0 g and the “TV (mean ± SD) d 28” value ([2]; 45 mg/kg, iv qw × 3w, SKOV-3) was 1753 ± 878 mm^3. For the same compound, the “number of animals with tumor regression” value ([2]; 45 mg/kg, iv qw × 3w, SKOV-3) was 0, the “Weight At the beginning” value ([2]; 45 mg/kg, iv qw × 3w) was 19.7 g and the “Weight At lats” value ([2]; 45 mg/kg, iv qw × 3w) was 18.4 g. The “body weight change during the whole experiment (in words)” value ([2]; CPT-11 both dose groups, CPT-1 45 mg/kg, SKOV-3) was “slight weight loss”, the “Weight At the beginning” value ([3]; 15 mg/kg, iv q3w × 3w) was 18.2 g and the “Weight At lats” value ([3]; 15 mg/kg, iv q3w × 3w) was 16.0 g. The “Weight At the beginning” value ([3]; 45 mg/kg, iv qw × 3w) was 18.6 g, the “Weight At lats” value ([3]; 45 mg/kg, iv qw × 3w) was 16.2 g and the “body weight change during the whole experiment (in words)” value ([3]; two groups treated with different doses (15 and 45 mg/kg), HT-29) was “underwent weight loss”. The “TV (mean ± SD) d 28” value ([4]; 15 mg/kg, iv q3w × 3w, HCT-116) was 322 ± 37 mm^3, the “Weight At the beginning” value ([4]; 15 mg/kg, iv q3w × 3w) was 19.1 g and the “Weight At lats” value ([4]; 15 mg/kg, iv q3w × 3w) was 16.6 g. For the same compound, the “body weight change during the whole experiment (in words)” value ([4]; 45 mg/kg group, compared with solvent control group, HCT-116) was “slightly higher weight loss”, the “TV (mean ± SD) d 28” value ([4]; 45 mg/kg, iv qw × 3w, HCT-116) was 512 ± 99 mm^3 and the “Weight At the beginning” value ([4]; 45 mg/kg, iv qw × 3w) was 19.2 g. For the same compound, the “Weight At lats” value ([4]; 45 mg/kg, iv qw × 3w) was 15.1 g, the “TV (mean ± SD) d 28” value ([5]; 15 mg/kg, iv q3w × 3w, A549, d 28) was 831 ± 305 mm^3 and the “Weight At the beginning” value ([5]; 15 mg/kg, iv q3w × 3w) was 18.1 g. For the same compound, the “RTV mean ± SD)” value ([5]; 45 mg/kg, iv qw × 3w, A549, d 28) was 9.87 ± 4.87 ^ and the “Weight At the beginning” value ([5]; 45 mg/kg, iv qw × 3w) was 18.4 g.
